Source: US20080119530A1, “Method for treatment and prevention of ultraviolet light induced skin pathologies” (priority 2006, published 2008)

How the values were obtained:
skin = assay type: in vivo, mouse
From the text: Real-Time PCR. Selected changes in gene expression were validated using real-time PCR. Sequences supplied by Affymetrix from the probe set of Il1 b (probe: 1449399_a_at), Mmp9 (probe: 1416298_at) and Thbs1 (probe: 1421811_at) were scanned for unique sequences using a stringent blast search (www.ncbi.nlm.nih.gov/BLAST). Sequences spanning exons were selected preferentially for probes and primers for prepared using Assays-by-Design (Applied Biosystems, Foster City, Calif.). Real-time PCR was performed using TaqMan One-Step RT-PCR Master Mix Reagents (Applied Biosystems, Foster City, Calif.) according to the manufacturer's instructions on an ABI Prism 7000 (Applied Biosystems, Foster City, Calif.). The relative efficiency of amplification of the selected gene versus control (GAPDH or actin) was plotted to ensure the slope of total RNA versus ΔCT was less than 0.05. The 2^−ΔΔC^T was used to determine fold-change differences between samples^25.

Tg.AC mice = experiment: UV-induced skin tumorigenesis in v-rasHa transgenic Tg.AC mice; assay type: in vivo, mouse
From the text: Animals. Homozygous v-rasHa transgenic mice on an FVB/N background were used in in vivo experiments. To obtain keratinocytes with genetic ablation of Erbb2, loxP sites were inserted flanking exon 2 of Erbb2 such that splicing from exon1 to downstream introns upon Cre recombinase expression creates a frameshift mutation. Mice were maintained in our animal facility and provided with Purina lab chow (Nestle Purina PetCare, St. Louis, Mo.) and water ad libitum. The dorsal skin was clipped one day before treatment using electric clippers (Wahl, Sterling, II) and shaved on the day of treatment with a Remington Microscreen shaver (Madison, N.C.). […] The Ultraviolet-B TL 40W/12 RS bulbs (Philips, Somerset, N.J.) used emitted approximately 30% UVA, 70% UVB and <1% UVC, with a total output of 470 μW/cm^2, as measured with radiometric photodetector probes (Newport, Irvine, Calif.). For tumor experiments, homozygous Tg.AC mice were treated and exposed twice with an interval of 7 d. Tumor number was counted and tumor volume measured weekly using calipers. Skin-fold thickness was measured using calipers (Mitutoyo, Aurora, Ill.) to lightly pinch the dorsal skin. All animal procedures were performed in accordance with American Association of Laboratory Animal Care guidelines and approved by Creighton University's Institutional Animal Care and Use Committee.
Statistical methods. The tumor experiment was analyzed using two-way ANOVA. Statistical significance in other experiments was assessed using two-way ANOVA or Student's t-test with Bonferroni post-test. All experiments, excluding the tumor experiment, were replicated several times and consistent results obtained.
The skin tumorigenesis experiment was performed in v-ras^Ha transgenic Tg.AC mice because of their enhanced sensitivity to UV-induced skin tumorigenesis (13; 52). […] While the vehicle-treated mice continued to accrue tumors throughout the duration of the experiment, the AG825-treated group reached a plateau in tumor number by 7 weeks after the first UV exposure. By the end of the experiment, mean tumor volume was also 70% less in the AG825-treated group when compared to the vehicle control. Representative tumors from each treatment were examined histologically and all were benign squamous papillomas with similar differentiation status.
Upon activation, Erbb2 heterodimerizes with either EGFR or Erbb3 to transduce signals. Support for the hypothesis that Erbb2 increases skin carcinogenesis comes from our investigations of the functions of its dimerization partner EGFR. A tumor study was conducted to assess the role of EGFR in the clonal expansion of transformed cells to form benign tumors in the skin of v-ras^Ha transgenic Tg.AC mice. Inhibition of EGFR with the tyrphostin inhibitor AG1478 decreased the number of tumors that developed by about 50% in UV-exposed v-rasHa transgenic mice. Mean tumor volume was 80% less upon inhibition of EGFR-mediated signaling when compared to, UV-exposed and vehicle-treated controls.

With COc1cc(/C=C(\C#N)C(N)=O)cc(CSc2nc3ccccc3s2)c1O [AG825] the “fold increase in Mmp9 expression” value (skin; 24 h after UV exposure, qPCR) was 1.3 fold, the “Thbs1 expression vs vehicle-treated mice” value (skin; 24 h post-UV, real-time PCR) was “similar” and the “Il1 b expression: fold greater increase after UV in vehicle-treated compared to AG825-treated samples” value (skin; real-time PCR) was 6 fold. For the same compound, the “fold higher Thbs1 expression compared to corresponding control” value (skin; sham-irradiated skin, real-time PCR) was 2 fold, the “tumors per mouse by the end of the experiment” value (Tg.AC mice; 4 mg AG825 topically 2 h prior to each of two 10 kJ/m^2 UV exposures 7 d apart) was 15 and the tumor multiplicity decreased (Tg.AC mice; 12 weeks later) was “more than half”. The tumor volume decreased (Tg.AC mice; 12 weeks later) was “more than half”, the “time by which tumor number reached a plateau” value (Tg.AC mice; after the first UV exposure) was no more than 7 weeks and the “mean tumor volume less than vehicle control” value (Tg.AC mice; by the end of the experiment) was 70%. The “development of tumors blocked” value (Tg.AC mice; inhibition of Erbb2 prior to UV irradiation, vs vehicle) was “more than half” and the “UV-induced carcinogenesis (FIG. 6)” value (Tg.AC mice; topical treatment 2 h prior to UV irradiation) was “suppress”.
